The values below come from ChEMBL document CHEMBL5131409, “Synthesis and characterization of chiral 6-azaspiro[2.5]octanes as potent and selective antagonists of the M4 muscarinic acetylcholine receptor” (Bioorg Med Chem Lett, 2022).

Where only a bound is given, the exact number is not on record here.

Data set [1] is described as follows: Cmax in mouse brain at 3 mg/kg, ip. The data set is classed as ADME, organism-based. Also noted: dose 3 mg/kg, route ip.
The target of data set [2] is T1, Muscarinic acetylcholine receptor M1 (Homo sapiens, UniProt P11229).
T1 sequence (P11229 whole entry): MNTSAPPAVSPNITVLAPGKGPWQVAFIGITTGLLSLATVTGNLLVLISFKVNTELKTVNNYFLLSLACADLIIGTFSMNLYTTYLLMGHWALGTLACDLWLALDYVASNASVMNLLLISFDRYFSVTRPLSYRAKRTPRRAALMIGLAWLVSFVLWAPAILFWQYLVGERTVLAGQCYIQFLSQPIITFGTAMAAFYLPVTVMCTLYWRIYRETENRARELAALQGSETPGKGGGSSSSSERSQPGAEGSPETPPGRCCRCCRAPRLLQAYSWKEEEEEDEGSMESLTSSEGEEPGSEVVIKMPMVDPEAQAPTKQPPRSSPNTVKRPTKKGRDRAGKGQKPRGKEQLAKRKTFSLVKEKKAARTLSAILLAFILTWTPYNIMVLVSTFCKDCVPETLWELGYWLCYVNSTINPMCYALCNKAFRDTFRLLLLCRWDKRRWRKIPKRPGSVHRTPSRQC
Nature of the data set: Inhibition of human muscarinic acetylcholine M1 receptor expressed in CHO cells co-expressing Gqi5 preincubated with compound followed by acetylcholine addition at EC80 concentration by calcium mobilization assay. The data set is classed as functional, cell-based. On the technique in general: Calcium assays in cells follow changes in intracellular calcium, usually with a dye or a luminescent sensor.

Data set [3] in a line: AUC (0.25 to last) in rat brain at 3 mg/kg, ip. The data set is classed as ADME, organism-based. As to conditions: in vivo.
For data set [4], the target named is T2, Muscarinic acetylcholine receptor M5 (Rattus norvegicus, UniProt P08911).
T2 sequence (P08911 whole entry): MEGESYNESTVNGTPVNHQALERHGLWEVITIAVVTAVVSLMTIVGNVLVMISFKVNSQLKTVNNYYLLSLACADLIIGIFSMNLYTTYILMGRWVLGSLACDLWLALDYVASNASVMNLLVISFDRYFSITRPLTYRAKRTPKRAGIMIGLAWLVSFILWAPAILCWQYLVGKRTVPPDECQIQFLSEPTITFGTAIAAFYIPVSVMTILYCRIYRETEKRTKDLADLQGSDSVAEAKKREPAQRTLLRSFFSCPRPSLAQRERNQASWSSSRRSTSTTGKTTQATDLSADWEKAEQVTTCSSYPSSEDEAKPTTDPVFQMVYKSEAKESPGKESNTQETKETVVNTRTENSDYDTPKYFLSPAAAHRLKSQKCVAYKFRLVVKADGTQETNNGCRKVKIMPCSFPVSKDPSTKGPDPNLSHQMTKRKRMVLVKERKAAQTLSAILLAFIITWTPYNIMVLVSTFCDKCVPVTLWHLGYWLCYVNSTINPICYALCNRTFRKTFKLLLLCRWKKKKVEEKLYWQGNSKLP
Nature of the data set: Inhibition of rat muscarinic acetylcholine M5 receptor expressed in CHO cells co-expressing Gqi5 preincubated with compound followed by acetylcholine addition at EC80 concentration by calcium mobilization assay. The data set is classed as functional, cell-based.

Data set [5] in a line: AUC (0 to infinity) in rat at 3 mg/kg, iv. The settings on record: in vivo. Further details: time infinity, dose 3 mg/kg, route iv. The data set is classed as ADME, organism-based.
Data set [6] can be described thus: Selectivity ratio of IC50 for inhibition of human muscarinic acetylcholine M2 receptor to IC50 for inhibition of human muscarinic acetylcholine M4 receptor expressed in CHO cells co-expressing Gqi5 in the presence of acetylcholine at EC80 concentration by calcium mobilization assay. The data set is classed as cell-based.
Data set [7] is described as follows: Cmax in mouse plasma at 3 mg/kg, ip. It is filed as ADME, organism-based. Also noted: dose 3 mg/kg, route ip.
Data set [8] can be described thus: Plasma clearance in rat at 3 mg/kg, iv. The data set is classed as ADME, organism-based.
Data set [9] is described as follows: Intrinsic clearance in human liver microsomes. It is filed as ADME, Microsome. As to conditions: read-out: CLH. A general note: Liver microsomes are a subcellular fraction often used to study metabolism.
A short description of data set [10]: Tmax in rat brain at 3 mg/kg, ip. The data set is classed as ADME, organism-based.
Data set [11] addresses T3, Muscarinic acetylcholine receptor M2 (Homo sapiens, UniProt P08172).
T3 sequence (P08172 whole entry): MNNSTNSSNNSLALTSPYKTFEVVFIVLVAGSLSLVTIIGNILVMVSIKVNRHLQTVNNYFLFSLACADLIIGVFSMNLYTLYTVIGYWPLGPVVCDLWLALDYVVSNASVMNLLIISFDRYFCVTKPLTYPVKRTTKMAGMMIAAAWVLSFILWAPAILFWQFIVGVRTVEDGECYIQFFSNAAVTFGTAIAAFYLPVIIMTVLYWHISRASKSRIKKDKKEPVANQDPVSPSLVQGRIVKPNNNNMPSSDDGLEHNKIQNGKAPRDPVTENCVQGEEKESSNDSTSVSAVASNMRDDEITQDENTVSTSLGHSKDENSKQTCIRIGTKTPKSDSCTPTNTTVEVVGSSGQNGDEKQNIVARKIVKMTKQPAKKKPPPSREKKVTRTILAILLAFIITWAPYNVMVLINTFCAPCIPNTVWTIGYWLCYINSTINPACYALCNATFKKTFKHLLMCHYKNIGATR
Nature of the data set: Inhibition of human muscarinic acetylcholine M2 receptor expressed in CHO cells co-expressing Gqi5 preincubated with compound followed by acetylcholine addition at EC80 concentration by calcium mobilization assay. The data set is classed as functional, cell-based.

Data set [12] has as its target T4, Muscarinic acetylcholine receptor M4 (Homo sapiens, UniProt P08173).
T4 sequence (P08173 whole entry): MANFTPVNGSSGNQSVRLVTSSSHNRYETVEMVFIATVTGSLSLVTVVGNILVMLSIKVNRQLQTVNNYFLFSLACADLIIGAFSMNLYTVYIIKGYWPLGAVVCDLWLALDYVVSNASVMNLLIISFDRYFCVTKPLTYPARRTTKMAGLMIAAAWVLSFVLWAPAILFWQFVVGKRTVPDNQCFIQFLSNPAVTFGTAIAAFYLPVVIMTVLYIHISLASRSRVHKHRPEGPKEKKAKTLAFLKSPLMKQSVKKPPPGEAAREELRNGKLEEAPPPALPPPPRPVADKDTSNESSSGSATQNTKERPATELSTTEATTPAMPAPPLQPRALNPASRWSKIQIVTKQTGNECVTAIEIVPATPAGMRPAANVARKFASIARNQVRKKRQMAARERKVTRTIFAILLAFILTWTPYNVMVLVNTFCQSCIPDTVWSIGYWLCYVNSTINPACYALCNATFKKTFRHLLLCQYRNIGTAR
Nature of the data set: Inhibition of human muscarinic acetylcholine M4 receptor expressed in CHO cells co-expressing Gqi5 in the presence of acetylcholine at EC80 concentration by calcium mobilization assay. It is filed as functional, cell-based.

The target of a further data set is Cytochrome P450 2D6 (Homo sapiens, UniProt P10635). Nature of the data set: Inhibition of CYP2D6 in human liver microsomes using cocktail of isoform-specific probe substrate. The data set is classed as ADME, Microsome.
Cytochrome P450 2D6, sequence (P10635 whole entry, canonical isoform): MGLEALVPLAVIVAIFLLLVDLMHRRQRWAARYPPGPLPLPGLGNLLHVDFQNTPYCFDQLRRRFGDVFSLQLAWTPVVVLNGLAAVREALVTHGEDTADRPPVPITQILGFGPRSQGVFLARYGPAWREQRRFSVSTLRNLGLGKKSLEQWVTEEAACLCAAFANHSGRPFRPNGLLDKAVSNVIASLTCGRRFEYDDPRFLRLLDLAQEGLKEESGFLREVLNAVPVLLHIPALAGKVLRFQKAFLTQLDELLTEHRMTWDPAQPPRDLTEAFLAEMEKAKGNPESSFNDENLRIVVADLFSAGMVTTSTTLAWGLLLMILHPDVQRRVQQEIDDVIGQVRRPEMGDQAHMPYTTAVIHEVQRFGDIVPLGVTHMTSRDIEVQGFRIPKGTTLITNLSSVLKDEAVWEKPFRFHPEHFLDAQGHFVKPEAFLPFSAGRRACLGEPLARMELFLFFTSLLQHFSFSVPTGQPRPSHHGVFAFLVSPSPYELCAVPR
The next data set deals with Cytochrome P450 2C9 (Homo sapiens, UniProt P11712). Briefly: Inhibition of CYP2C9 in human liver microsomes using cocktail of isoform-specific probe substrate. It is filed as ADME, Microsome.
Cytochrome P450 2C9, sequence (P11712 whole entry, canonical isoform): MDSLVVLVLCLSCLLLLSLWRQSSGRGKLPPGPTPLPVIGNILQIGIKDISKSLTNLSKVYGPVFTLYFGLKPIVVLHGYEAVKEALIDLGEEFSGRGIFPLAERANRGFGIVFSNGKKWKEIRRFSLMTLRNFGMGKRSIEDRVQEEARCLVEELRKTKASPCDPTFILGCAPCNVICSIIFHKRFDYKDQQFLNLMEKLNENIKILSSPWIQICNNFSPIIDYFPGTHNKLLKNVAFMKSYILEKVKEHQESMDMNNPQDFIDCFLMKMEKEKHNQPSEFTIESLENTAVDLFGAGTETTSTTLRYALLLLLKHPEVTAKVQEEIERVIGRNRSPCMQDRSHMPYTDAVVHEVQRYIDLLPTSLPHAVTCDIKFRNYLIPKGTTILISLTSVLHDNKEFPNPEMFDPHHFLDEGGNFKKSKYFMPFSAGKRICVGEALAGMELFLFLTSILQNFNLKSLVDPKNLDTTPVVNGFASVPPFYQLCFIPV
For data set [13], the target named is Muscarinic acetylcholine receptor M3 (Rattus norvegicus, UniProt P08483). Briefly: Inhibition of rat muscarinic acetylcholine M3 receptor expressed in CHO cells co-expressing Gqi5 preincubated with compound followed by acetylcholine addition at EC80 concentration by calcium mobilization assay. The data set is classed as functional, cell-based.
Muscarinic acetylcholine receptor M3, sequence (P08483 whole entry): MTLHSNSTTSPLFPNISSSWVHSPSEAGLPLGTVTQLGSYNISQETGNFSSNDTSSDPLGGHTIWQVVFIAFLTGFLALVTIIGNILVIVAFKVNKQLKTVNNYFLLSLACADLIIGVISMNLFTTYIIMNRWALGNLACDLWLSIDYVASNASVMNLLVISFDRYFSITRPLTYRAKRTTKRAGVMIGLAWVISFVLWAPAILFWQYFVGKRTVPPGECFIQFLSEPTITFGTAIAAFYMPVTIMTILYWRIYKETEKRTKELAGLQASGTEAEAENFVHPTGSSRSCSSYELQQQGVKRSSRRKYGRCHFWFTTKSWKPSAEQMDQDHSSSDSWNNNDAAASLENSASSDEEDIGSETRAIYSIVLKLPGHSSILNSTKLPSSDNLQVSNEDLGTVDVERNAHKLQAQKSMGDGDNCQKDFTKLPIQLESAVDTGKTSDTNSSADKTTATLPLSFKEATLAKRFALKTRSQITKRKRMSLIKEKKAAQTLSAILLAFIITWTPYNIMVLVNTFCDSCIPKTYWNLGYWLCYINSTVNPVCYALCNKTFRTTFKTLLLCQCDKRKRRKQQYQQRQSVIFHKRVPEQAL

The Cmax is the highest concentration seen after dosing. As usually defined, the IC50 is the point on the concentration scale where inhibition reaches its midpoint. As a reminder, the AUC(0-inf) is the area under the concentration-time curve extrapolated to infinity. A lower AUC(0-inf) goes with less exposure. In general, clearance refers to a measure of how efficiently the substance is removed, as volume per time. A lower clearance goes with inefficient removal. One may read the Tmax as the time from dosing to the highest level. In the case of `CC(=O)Nc1ccc(-c2ccc(NC[C@@H]3CC34CCN(CC3CCOCC3)CC4)nn2)cc1`, the values for the Cmax in data set [1] and in [7] were 738 ng/g and 6870 ng/mL, respectively. Further, the 50% inhibitory concentration (IC50) in data set [2] was > 10 µM; in [4], > 10 µM; in [11] it was > 10 µM; in data set [12], 0.071 µM; at Cytochrome P450 2D6 it was > 30 µM; on Cytochrome P450 2C9 it was > 30 µM. In addition, the IC50 in [13] is > 10 µM. Besides, in [3], the AUClast was determined as 2180 ng·h/g. Further, the AUC(0-inf) in [5] was 202 ng·h/mL. Also, the Ratio IC50 in [6] was > 140. In [8], the clearance was found to be 257 mL/min/kg. Also, in data set [9], the predicted hepatic clearance is 16 mL/min/kg. The time to peak (Tmax) in data set [10] came to 2 h.
